Source: PubChem BioAssay (NCI)
Where “and” joins values, the source holds several entries; their conditions need not be identical. Equal entries are not always repeated.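 Results reflect a 48-hour exposure of cells in 96-well plates to compound at five concentrations. GI50: concentration for 50% inhibition of growth. TGI denotes the concentration required for complete inhibition of growth.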

Tests used:
Test in all cases: DTP human tumour cell line panel, 48 h
SF-268 CNS = system: SF-268 CNS
HOP-62 NSCLC = system: HOP-62 NSCLC
SW-620 colon = system: SW-620 colon
SN12C renal = system: SN12C renal
RPMI-8226 leukemia = system: RPMI-8226 leukemia
TK-10 renal = system: TK-10 renal
OVCAR-8 ovarian = system: OVCAR-8 ovarian
HCT-116 colon = system: HCT-116 colon
NCI-H23 lung = system: NCI-H23 lung
SNB-75 CNS = system: SNB-75 CNS

Structure (SMILES)	GI50 (SF-268 CNS)	TGI (SF-268 CNS)	GI50 (HOP-62 NSCLC)	TGI (HOP-62 NSCLC)	GI50 (SW-620 colon)	TGI (SW-620 colon)	GI50 (SN12C renal)	TGI (SN12C renal)	GI50 (RPMI-8226 leukemia)	TGI (RPMI-8226 leukemia)	GI50 (TK-10 renal)	TGI (TK-10 renal)	GI50 (OVCAR-8 ovarian)	TGI (OVCAR-8 ovarian)	GI50 (HCT-116 colon)	TGI (HCT-116 colon)	TGI (NCI-H23 lung)	TGI (SNB-75 CNS)	GI50 (NCI-H23 lung)	GI50 (SNB-75 CNS)
COc1ccc2c(c1)C(=O)c1c-2c(NCCN(C)C)nc2ccccc12	2.97 µM	15.5 µM	14.3 µM	27.4 µM	3.4 µM	14 µM	3.74 µM	16 µM	1.21 µM	4.53 µM	8.19 µM	28.8 µM	0.496 µM	5.53 µM	15.1 µM	28.3 µM				
C#Cc1cc(CN(CC(=O)OC(C)(C)C)CC(=O)OC(C)(C)C)nc(CN(CC(=O)OC(C)(C)C)CC(=O)OC(C)(C)C)c1		44.8 µM		24.1 µM		21.1 µM		> 100 µM		6.25 µM		> 100 µM		31.6 µM			26.3 µM	43.4 µM		
COc1cnc2c(c1)C(=O)c1c-2n(CCCNC(C)C)c(=O)c2cc([N+](=O)[O-])ccc12	0.0488 µM	1.42 µM	0.0853 µM	0.34 µM	0.0393 µM	0.643 µM	0.0393 µM	0.438 µM	0.0487 µM	0.738 µM	0.134 µM	0.318 µM	0.0468 µM	0.541 µM			0.285 µM	0.48 µM	0.0401 µM	0.0696 µM
c1ccc2c3c(ccc2c1)-c1c(ccc2c(NCCCCN4CCCCC4)cccc12)C3	1.07 µM	2.25 µM	1.57 µM	2.91 µM			1.62 µM	3.05 µM	1.64 µM	3.6 µM	2.24 µM	4.57 µM	2.19 µM	5.61 µM	1.63 µM	2.98 µM	3.16 µM		1.7 µM	
Nc1ncnc2c1ncn2C1OC(COC2C(CO)OC(OC(C(=O)O)C(O)C(OP(=O)(O)O)C(O)C(=O)O)C(O)C2O)C(O)C1O (centres undefined)		> 100 µM		> 100 µM		> 100 µM				> 100 µM		> 100 µM		> 100 µM		> 100 µM	> 100 µM	> 100 µM		
COC1CC(OC)C(O)C(CO)O1 (centres undefined)				> 100 µM		> 100 µM		> 100 µM				> 100 µM		> 100 µM		> 100 µM	> 100 µM	> 100 µM		
COc1ccccc1NC(=O)C(CC(C(=O)Nc1ccccc1OC)/C(C)=N/NC(=O)c1ccccc1O)/C(C)=N/NC(=O)c1ccccc1O (centres undefined)		> 100 µM		> 100 µM		> 100 µM		> 100 µM		> 100 µM		> 100 µM		> 100 µM			> 100 µM	> 100 µM		
COC(=O)C1=C(C)N(NC(N)=O)C(C)(O)C12CCOC2=O (centres undefined)		> 100 µM		> 100 µM		> 100 µM		> 100 µM		> 100 µM		> 100 µM		> 100 µM		> 100 µM	> 100 µM			
C=C1C(=O)O[C@H]2[C@H]1CC/C(COC(=O)NCc1cc(OC)cc(OC)c1)=C\CC[C@@]1(C)O[C@@H]21	2.46 µM	9.9 µM	3.06 µM	11.7 µM	1.12 µM	3.97 µM			1.8 µM	6.25 µM	1.66 µM	3.18 µM	1.6 µM	3.95 µM	0.771 µM	2.06 µM	4.32 µM	12.7 µM	1.84 µM	1.99 µM
CCOC(=O)N1C=CC(=C2C(=C3C=CN(C(=O)OCC)C=C3)C(=C3C=CN(C(=O)OCC)C=C3)C2=C2C=CN(C(=O)OCC)C=C2)C=C1		> 100 µM		> 100 µM		> 100 µM		92.4 µM				81.6 µM		71.5 µM		56.1 µM	> 100 µM	> 100 µM		
Cc1ccc(N2C(=O)C(Cl)=C(Cl)C2=O)cc1		37.8 µM		> 100 µM		34.8 µM		33.7 µM		52.8 µM						32.9 µM	41.3 µM	48.5 µM		
CCCCCCNCCCNc1c2ccccc2nc2cccc([N+](=O)[O-])c12	0.038 µM	0.0522 µM and 0.405 µM		0.0773 µM and 0.0374 µM		0.115 µM and 0.734 µM		0.12 µM			0.0705 µM	0.787 µM and 0.512 µM		0.136 µM and 0.17 µM		1.36 µM	0.0253 µM and 0.0599 µM	0.181 µM and 0.237 µM	0.0159 µM	0.065 µM
COc1ccc(C2c3c(-c4ccccc4)nn(-c4ccccc4)c3Oc3ncn4nc(CC#N)nc4c32)cc1OC (centres undefined)	16.6 µM and 3.29 µM	42.5 µM and > 36.1 µM			24.2 µM and > 82.3 µM	> 100 µM		44.5 µM and > 41.9 µM	> 100 µM and 20.9 µM	> 100 µM	27.8 µM and 3.31 µM	> 100 µM and 14.6 µM		> 100 µM	40.7 µM and 9.55 µM	> 100 µM	> 100 µM	> 100 µM and 12.2 µM	47.2 µM and 19.5 µM	
O=C(O)c1ccccc1Nc1ccc2nnc(-c3ccncc3)n2n1	5.6 µM	29.2 µM	15.4 µM	33.5 µM	6.48 µM	36 µM	3.56 µM	17.1 µM			7.13 µM	25 µM	8.1 µM	41.7 µM	4.09 µM	21 µM	54.2 µM	25 µM	14.1 µM	12.2 µM
CSC1(CC(=O)N2CCCCC2)C(=O)Nc2ccccc21 (centres undefined)		> 100 µM		> 100 µM		> 100 µM				> 100 µM		> 100 µM				> 100 µM	> 100 µM	> 100 µM		
COc1cc(Nc2nc3cc(C(F)(F)F)ccc3nc2C)cc(OC)c1OC		33.5 µM		30.6 µM		26.6 µM		23 µM				23.3 µM		24.5 µM		21.1 µM	23.2 µM	39 µM		
FC(F)(F)c1cccc(C2SCc3nc4ccccc4n32)c1 (centres undefined)		> 100 µM				> 100 µM		> 100 µM		> 100 µM		> 100 µM		> 100 µM		> 100 µM	> 100 µM	> 100 µM		
O=NN(CCCl)C(=O)N[C@H]1CCCC[C@@H]1Cl		> 100 µM				> 100 µM		> 100 µM		> 100 µM		> 100 µM		> 100 µM		> 100 µM	> 100 µM	> 100 µM		
CC(C)c1ccc2nc3ccc(C(=O)NCCN4CCN(c5ccccc5)CC4)cn3c(=O)c2c1		> 100 µM		> 100 µM		> 100 µM						> 100 µM		> 100 µM		> 100 µM	> 100 µM			
CC1=CC(=O)c2ccc(C)cc2C1=O		38.4 µM		32 µM		30.4 µM		36.6 µM		6.36 µM		34 µM		26.8 µM		15.1 µM	23.9 µM			
CCOC(=O)C(C(=O)OCC)=c1sc(=C(C(=O)OCC)C(=O)OCC)s1		> 100 µM		> 100 µM		> 100 µM		> 100 µM		> 100 µM		> 100 µM		> 100 µM			> 100 µM	> 100 µM		
C[CH2][Sn]([CH2]C)([O]C(=O)c1ccc(F)cc1)[O][Sn]([CH2]C)([CH2]C)[O]C(=O)c1ccc(F)cc1	67.4 µM	> 100 µM	> 100 µM	> 100 µM	22.8 µM	45.5 µM	67.2 µM	> 100 µM			23.5 µM	62.3 µM	> 100 µM	> 100 µM	> 100 µM	> 100 µM	> 100 µM	> 100 µM	41 µM	58.5 µM
O=C(O)[C@@H](NS(=O)(=O)c1ccc([N+](=O)[O-])cc1)c1ccccc1		> 100 µM				> 100 µM		> 100 µM		> 100 µM		> 100 µM		> 100 µM			> 100 µM	> 100 µM		
COc1ccc(C(c2cc3c(cc2O)OCO3)N2CCOCC2)cc1OC (centres undefined)		25.5 µM		29.1 µM		14.4 µM		22.3 µM				26.1 µM		27.2 µM		22.9 µM	15.9 µM	31.8 µM		
COc1cc(/C=C2\C[C@H]3[C@@H]4CC=C5C[C@@H](OC(C)=O)CC[C@]5(C)[C@H]4CC[C@]3(C)[C@H]2OC(C)=O)ccc1OCCN1CCCCC1	35.7 µM	> 50 µM	8.96 µM	27.1 µM	11.2 µM	> 50 µM	10.8 µM	27.1 µM			10.5 µM	19.1 µM	13 µM	> 50 µM			> 50 µM		> 50 µM	
CCOC(=O)c1cc(OC(=O)CC)c2c(OC)ccc(OC)c2c1						> 100 µM		> 100 µM		> 100 µM		> 100 µM				> 100 µM	> 100 µM	99 µM		
Cc1c(-c2nnc(-c3cc(Cl)c(Cl)cc3Cl)o2)nnn1-c1ccnc2c(C(F)(F)F)cccc12	25 µM	62.2 µM	20.5 µM	47.7 µM	30.8 µM	> 100 µM	31.4 µM	> 100 µM	19.9 µM	54.1 µM	32.2 µM	87 µM			17.9 µM	34.8 µM	81.1 µM	43.5 µM	26.5 µM	18.7 µM
